According to ChEMBL document CHEMBL1201862, “PubChem BioAssay data set” (2004):
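Briefly, cells in 96-well plates were exposed to five compound concentrations for 48 h, and endpoints were estimated by linear interpolation. The concentration for 50% growth inhibition is given as GI50.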 Active and inactive are the calls of the source. Rule as the data show it: active = GI50 up to about 1.1 µM and inactive = higher.

How the values were obtained:
Assay in all cases: NCI-60 cell line screen, 48 h
[1] = tested on: A498
[2] = tested on: A549
[3] = tested on: CAKI-1
[4] = tested on: EKVX
[5] = tested on: HCC 2998
[6] = tested on: HCT-116
[7] = tested on: HCT-15
[8] = tested on: HT-29
[9] = tested on: M14
[10] = tested on: NCI-H23
[11] = tested on: NCI-H460
[12] = tested on: NCI-H522
[13] = tested on: OVCAR-3
[14] = tested on: OVCAR-4
[15] = tested on: RXF 393
[16] = tested on: SF-295
[17] = tested on: SF-539
[18] = tested on: SNB-19
[19] = tested on: UACC-257

## CC1=C/C(=C2/N=C(N(C)C)SS2)C(C)=N1.[O-][Cl+3]([O-])([O-])O
[1]
  GI50: > 100 µM (inactive)
[2]
  GI50: > 100 µM (inactive)
[3]
  GI50: > 100 µM (inactive)
[4]
  GI50: > 100 µM (inactive)
[5]
  GI50: > 100 µM (inactive)
[6]
  GI50: > 100 µM (inactive)
[7]
  GI50: > 100 µM
[8]
  GI50: > 100 µM (inactive)
[9]
  GI50: > 100 µM (inactive)
[10]
  GI50: 6.47 µM (inactive)
[11]
  GI50: > 100 µM (inactive)
[12]
  GI50: 4.33 µM (inactive)
[13]
  GI50: > 100 µM (inactive)
[14]
  GI50: 71.3 µM (inactive)
[15]
  GI50: > 100 µM (inactive)
[16]
  GI50: > 100 µM (inactive)
[17]
  GI50: > 100 µM (inactive)
[18]
  GI50: > 100 µM (inactive)
[19]
  GI50: > 100 µM (inactive)

## COc1nc2c(nc(N)n2C2OC(CO)C(O)C(O)C2O)c(=O)[nH]1 (configuration not stated)
[1]
  GI50: > 100 µM (inactive)
[2]
  GI50: > 100 µM (inactive)
[3]
  GI50: > 100 µM (inactive)
[4]
  GI50: > 100 µM (inactive)
[5]
  GI50: > 100 µM (inactive)
[6]
  GI50: > 100 µM (inactive)
[8]
  GI50: > 100 µM (inactive)
[9]
  GI50: > 100 µM (inactive)
[10]
  GI50: > 100 µM (inactive)
[11]
  GI50: > 100 µM (inactive)
[12]
  GI50: > 100 µM (inactive)
[13]
  GI50: > 100 µM (inactive)
[14]
  GI50: > 100 µM (inactive)
[15]
  GI50: > 100 µM (inactive)
[16]
  GI50: > 100 µM (inactive)
[17]
  GI50: > 100 µM (inactive)
[18]
  GI50: > 100 µM (inactive)
[19]
  GI50: > 100 µM (inactive)

## CCOc1ccccc1NC(=O)CC(C(=O)OC)C(=O)C(=O)OC (configuration not stated)
[1]
  GI50: > 100 µM (inactive)
[2]
  GI50: > 100 µM (inactive)
[3]
  GI50: > 100 µM (inactive)
[4]
  GI50: > 100 µM (inactive)
[5]
  GI50: > 100 µM (inactive)
[6]
  GI50: > 100 µM (inactive)
[7]
  GI50: > 100 µM
[8]
  GI50: > 100 µM (inactive)
[9]
  GI50: > 100 µM (inactive)
[10]
  GI50: > 100 µM (inactive)
[11]
  GI50: > 100 µM (inactive)
[12]
  GI50: > 100 µM (inactive)
[13]
  GI50: > 100 µM (inactive)
[14]
  GI50: > 100 µM (inactive)
[15]
  GI50: > 100 µM (inactive)
[16]
  GI50: > 100 µM (inactive)
[17]
  GI50: > 100 µM (inactive)
[18]
  GI50: > 100 µM (inactive)
[19]
  GI50: > 100 µM (inactive)

## N=C(N)NS(=O)(=O)c1ccc(NC(=O)c2cccn3c(=O)c4ccccc4nc23)cc1
[1]
  GI50: > 100 µM (inactive)
[2]
  GI50: 45.6 µM (inactive)
[3]
  GI50: > 100 µM (inactive)
[4]
  GI50: > 100 µM (inactive)
[5]
  GI50: 85.7 µM (inactive)
[6]
  GI50: 40.8 µM (inactive)
[8]
  GI50: 23.2 µM (inactive)
[9]
  GI50: 60.8 µM (inactive)
[10]
  GI50: 38 µM (inactive)
[11]
  GI50: 53.1 µM (inactive)
[12]
  GI50: 35 µM (inactive)
[13]
  GI50: > 100 µM (inactive)
[14]
  GI50: 41.6 µM (inactive)
[15]
  GI50: 62.8 µM (inactive)
[16]
  GI50: 85.5 µM (inactive)
[17]
  GI50: > 100 µM (inactive)
[18]
  GI50: > 100 µM (inactive)
[19]
  GI50: 19.7 µM (inactive)

## O=S(=O)(SCc1ccccc1)C(c1ccccc1)c1ccccc1
[1]
  GI50: 29.6 µM (inactive)
[2]
  GI50: 32 µM (inactive)
[3]
  GI50: 31 µM (inactive)
[4]
  GI50: 60.3 µM (inactive)
[5]
  GI50: > 100 µM (inactive)
[6]
  GI50: 33.4 µM (inactive)
[7]
  GI50: 30.5 µM
[8]
  GI50: 28.6 µM (inactive)
[9]
  GI50: 24 µM (inactive)
[10]
  GI50: 26.5 µM (inactive)
[11]
  GI50: 37 µM (inactive)
[12]
  GI50: 26.6 µM (inactive)
[13]
  GI50: 29.1 µM (inactive)
[14]
  GI50: 48.9 µM (inactive)
[15]
  GI50: 21.9 µM (inactive)
[16]
  GI50: 44.1 µM (inactive)
[17]
  GI50: 17.2 µM (inactive)
[18]
  GI50: > 100 µM (inactive)
[19]
  GI50: 32.9 µM (inactive)

## C(=C\c1cc(CCc2nc3ccccc3[nH]2)n[nH]1)/c1ccccc1
[1]
  GI50: > 100 µM (inactive)
[2]
  GI50: > 100 µM (inactive)
[3]
  GI50: > 100 µM (inactive)
[4]
  GI50: > 100 µM (inactive)
[5]
  GI50: > 100 µM (inactive)
[6]
  GI50: > 100 µM (inactive)
[7]
  GI50: > 100 µM
[8]
  GI50: > 100 µM (inactive)
[9]
  GI50: > 100 µM (inactive)
[10]
  GI50: > 100 µM (inactive)
[11]
  GI50: > 100 µM (inactive)
[12]
  GI50: > 100 µM (inactive)
[13]
  GI50: > 100 µM (inactive)
[14]
  GI50: > 100 µM (inactive)
[15]
  GI50: > 100 µM (inactive)
[16]
  GI50: > 100 µM (inactive)
[17]
  GI50: > 100 µM (inactive)
[18]
  GI50: > 100 µM (inactive)
[19]
  GI50: > 100 µM (inactive)
